Measurements published in patent US20020132776A1, “Inhibitors of transglutaminase” (N-Zyme Biotech GmbH, priority 2000, published 2002).
Where a SMILES comes first, the peptide text is derived from it. The star is where a group is joined. Cbz = O=C(OCc1ccccc1)*; ClAc = O=C(CCl)*; For = O=C*

What was measured:
Type in all cases: biochemical
[1] = biological target: T1, guinea pig liver transglutaminase (Cavia cutleri, UniProt P08587); assay: Inhibition of tissue transglutaminase, hydroxamate assay (Example 29); conditions: 20 min preincubation at 37° C., first block r5-r22
T1 sequence (P08587 1-690): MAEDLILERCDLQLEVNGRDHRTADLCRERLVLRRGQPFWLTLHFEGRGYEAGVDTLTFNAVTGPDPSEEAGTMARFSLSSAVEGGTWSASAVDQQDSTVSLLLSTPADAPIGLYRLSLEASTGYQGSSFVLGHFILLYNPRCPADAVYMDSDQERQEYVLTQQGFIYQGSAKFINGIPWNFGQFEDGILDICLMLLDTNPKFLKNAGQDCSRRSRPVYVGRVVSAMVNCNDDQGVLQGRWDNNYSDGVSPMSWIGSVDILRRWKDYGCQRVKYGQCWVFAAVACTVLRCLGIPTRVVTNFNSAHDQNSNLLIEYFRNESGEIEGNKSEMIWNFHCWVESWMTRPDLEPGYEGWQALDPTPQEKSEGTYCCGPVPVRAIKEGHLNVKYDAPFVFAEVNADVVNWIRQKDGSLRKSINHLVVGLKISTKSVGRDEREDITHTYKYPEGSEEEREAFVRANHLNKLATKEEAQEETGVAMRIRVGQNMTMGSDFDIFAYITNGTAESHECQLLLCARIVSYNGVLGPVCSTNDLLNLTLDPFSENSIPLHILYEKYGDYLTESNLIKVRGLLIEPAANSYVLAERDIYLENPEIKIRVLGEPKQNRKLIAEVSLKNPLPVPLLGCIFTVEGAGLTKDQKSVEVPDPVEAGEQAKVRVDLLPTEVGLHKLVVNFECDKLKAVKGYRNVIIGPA
Description: The inhibitors are dissolved in dimethyl sulfoxide (DMSO) at a concentration of 100 mM. Solutions having a concentration of 10 mM, 1 mM and 0.1 mM are prepared by dilution with transglutaminase buffer (50 mM Tris-HCl, pH 7.0, 5 mM CaCl2, 2 mM DTT).
Afterwards, inhibition takes place by incubation (20 minutes at 37° C.) of 25 μL of a transglutaminase solution (bacterial transglutaminase or guinea pig liver transglutaminase, respectively) with 25 μL of the respective inhibitor solution. Immediately after the incubation has finished, 100 μL of substrate solution (0.1 mM hydroxylamine, 30 mM CBZ-Gln-Gly-OH, 2 mM DTT, 5 mM CaCl2 in 50 mM Tris-HCl, pH 7.0) are added and it is incubated for 10 minutes at 37° C. The reaction is stopped with 100 μL of a solution of 4% (w/v) HCl, 1.7% (w/v) FeCl3 and 4% (w/v) trichloroacetic acid [see Grossowicz et al., J. Biol. Chem. 187, 111-125, 1950]. After centrifugation (10 minutes, 10,000× g) the extinction of the supernatant solution at 492 nm in the microtiter plate reader and, thus, the remaining activity of the transglutaminase is determined.

[2] = biological target: T2, factor XIIIa (Homo sapiens, UniProt P00488); assay: Factor XIIIa fibrin coagulation/crosslinking inhibitor test (Example 31); conditions: inhibitor concentration range 0 to 10 μm; absorption of clots at 405 nm
T2 sequence (P00488 39-732 limits assumed): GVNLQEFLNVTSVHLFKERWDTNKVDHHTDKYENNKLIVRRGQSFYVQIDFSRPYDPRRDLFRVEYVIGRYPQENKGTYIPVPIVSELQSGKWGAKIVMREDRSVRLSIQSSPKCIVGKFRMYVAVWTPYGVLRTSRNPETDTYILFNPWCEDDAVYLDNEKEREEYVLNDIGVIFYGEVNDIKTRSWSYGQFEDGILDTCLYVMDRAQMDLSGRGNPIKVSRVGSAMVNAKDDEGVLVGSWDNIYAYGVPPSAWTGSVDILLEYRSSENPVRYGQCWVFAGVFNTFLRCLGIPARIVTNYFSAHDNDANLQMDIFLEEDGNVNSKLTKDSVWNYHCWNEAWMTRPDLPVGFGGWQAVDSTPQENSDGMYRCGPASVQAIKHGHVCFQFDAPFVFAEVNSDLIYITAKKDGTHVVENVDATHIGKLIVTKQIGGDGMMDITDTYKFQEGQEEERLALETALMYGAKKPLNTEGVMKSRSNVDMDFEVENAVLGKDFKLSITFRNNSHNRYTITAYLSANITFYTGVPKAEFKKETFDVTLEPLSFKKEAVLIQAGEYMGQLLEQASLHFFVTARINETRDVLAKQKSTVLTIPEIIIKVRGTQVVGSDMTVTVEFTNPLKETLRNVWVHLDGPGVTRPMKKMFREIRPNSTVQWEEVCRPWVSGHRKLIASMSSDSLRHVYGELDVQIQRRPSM
Description: The inhibitor tests were carried out in microtiter plates (0.2 ml). This entailed examination of the ability of the plasma transglutaminase to catalyze the coagulation of fibrin with and without inhibitor [modified method of Tymiak et al., J. Antibiot., 46, 204-206 (1993)].
40 μl of bovine fibrinogen (3 mg/ml, Sigma) in 25 mm Tris-HCl with 100 mm NaCl and 2.5 mm Ca^2+, pH 7.5, were incubated with 2 U/ml bovine thrombin (Sigma) at 25° C. for 10 min.
In a second mixture in parallel therewith, likewise 2 U/ml bovine thrombin (Sigma) were added to 20 μg/ml FXIII in 25 mm Tris-HCl with 100 mm NaCl and 2.5 mm Ca^2+, pH 7.5, and incubated at 25° C. for 10 min. The γ-aldehyde inhibitor concentration was then adjusted so that the measurements covered a concentration range from 0 to 10 μm. The reaction mixture was incubated at 25° C. for 15 min.
The two mixtures were combined and, after an incubation at 30° C. for 15 min, 150 μl of urea (8 M) were added. The absorption of the clots was measured at 405 nm.

[3] = biological target: T1, guinea pig liver transglutaminase; assay: Guinea pig liver transglutaminase, incorporation of hydroxylamine into CBZ-Gln-Gly (Example 31); conditions: 0-10 μM inhibitor, 15 min at 25° C.
Description: The inhibitor tests were carried out in analogy to the factor XIII test in microtiter plates. In this case, the incorporation of hydroxylamine into carbobenzoxy-L-glutaminylglycine (CBZ-Gln-Gly) was investigated [modified method of Grossowicz et al., J. Biol. Chem., 187, 111 -125 (1950)].
25 μl (0-10 μM) of inhibitor were added to 25 μl (5.0 U/ml) of guinea pig liver transglutaminase (Sigma) and incubated at 25° C. for 15 min. Then 100 μl of 0.2 M tris-acetate buffer, pH 6.0, with 30 mm CBZ-Gln-Gly, 0.1 M hydroxylamine and 10 mM glutathione were pipetted in. After 10 min at 37° C., the absorption at 492 nm was measured using a microtiter plate reader.

| Compound | Inhibition of tissue transglutaminase at an inhibitor concentration of 0.05 mM ([1]; 0.05 mM inhibitor) | Inhibition of tissue transglutaminase at an inhibitor concentration of 0.5 mM ([1]; 0.5 mM inhibitor) | Inhibition of tissue transglutaminase at an inhibitor concentration of 5 mM ([1]; 5 mM inhibitor) | further results |
| --- | --- | --- | --- | --- |
| CCOC(=O)CNC(=O)[C@H](COC(C)=O)NC(=O)OCc1ccccc1 [Carbobenzoxy-β-(O-acetyl)-L-serylglycine Ethyl Ester] (Cbz-Ser(Ac)-Gly-OEt) | 0% | 0% | 0% |  |
| O=C(O)CNC(=O)[C@H](COC(=O)CCl)NC(=O)OCc1ccccc1 [Carbobenzoxy-L-serylglycine β-Chloroacetate] (Cbz-Ser(ClAc)-Gly-OH) | 1% | 43% | 91% |  |
| Carbobenzoxy-β-(O-carbamoyl)-L-serylglycine Ethyl Ester | 0% | 0% | 0% |  |
| CC(C)(C)OC(=O)CNC(=O)[C@H](CNC(N)=O)NC(=O)OCc1ccccc1 [Carbobenzoxy-β-(N-carbamoyl)-L-aminoalanylglycine tert-butyl Ester] | 0% | 0% | 0% |  |
| CC(=O)OC[C@H](NC(=O)OCc1ccccc1)C(=O)NCC(=O)O [Carbobenzoxy-L-serylglycine β-acetate, Carbobenzoxy-L-serylqlycine β-acetate] (Cbz-Ser(Ac)-Gly-OH) | 0% | 0% | 0% |  |
| CCOC(=O)CNC(=O)[C@H](COC(=O)CCl)NC(=O)OCc1ccccc1 [Carbobenzoxy-β-(O-chloroacetyl)-L-serylglycine Ethyl Ester] (Cbz-Ser(ClAc)-Gly-OEt) | 2% | 7% | 76% |  |
| CCOC(=O)CNC(=O)[C@H](COC=O)NC(=O)OCc1ccccc1 [Carbobenzoxy-β-(O-formyl)-L-serylglycine Ethyl Ester] (Cbz-Ser(For)-Gly-OEt) | 0% | 0% | 0% |  |
| O=CCC[C@H](NC(=O)OCc1ccccc1)C(=O)NCC(=O)O [γ-Aldehyde of carbobenzoxy-L-glutamylglycine] |  |  |  | Inhibition of factor XIIIa (fibrin crosslinking) [2]: cannot be inhibited; Inhibitor concentration at which guinea pig liver transglutaminase is inhibited [3]: 1 µM |
| γ-Aldehyde of tert-butyloxycarbonyl-L-glutaminyl-L-glutaminyl-L-isoleucyl-L-valine |  |  |  | Inhibition of factor XIIIa (fibrin crosslinking) [2]: effective factor XIIIa inhibitor |
| NC(=O)NC[C@H](NC(=O)OCc1ccccc1)C(=O)NCC(=O)O [Carbobenzoxy-β-ureido-L-alanylglycine] |  |  |  | inhibition at 50 µM ([1]; 0.05 mM inhibitor, read-out: Inhibition of tissue transglutaminase at an inhibitor concentration of 0.05 mM): 0%; inhibition at 500 µM ([1]; 0.5 mM inhibitor, read-out: Inhibition of tissue transglutaminase at an inhibitor concentration of 0.5 mM): 0%; inhibition at 5000 µM ([1]; 5 mM inhibitor, read-out: Inhibition of tissue transglutaminase at an inhibitor concentration of 5 mM): 35% |
| O=COC[C@H](NC(=O)OCc1ccccc1)C(=O)NCC(=O)O [Carbobenzoxy-L-serylglycine β-formate, Carbobenzoxy-L-serylglycine β-Formate] (Cbz-Ser(For)-Gly-OH) | 0% | 0% | 56% |  |
